Assay results from paper PMC8657773, “Development of a PROTAC-Based Targeting Strategy Provides a Mechanistically Unique Mode of Anti-Cytomegalovirus Activity” (International Journal of Molecular Sciences, 2021).
Values joined by “and” are separate entries in the source; they are usually repeats but may differ in a detail not shown here. Equal entries are not always repeated. Where two headings read alike, the source gives them in different places.

Legend:
SARS-CoV-2 d6-YFP [1] = system: SARS-CoV-2 d6-YFP; set-up: method as in PMID 34578109; conditions: human Caco-2 cells, previously demonstrated; ref [41]; cited from earlier work
HCMV Merlin [2] = assay: HCMV-specific qPCR replication assay in MRC-5 cells; format: cell-based, Human cytomegalovirus
MCMV Smith-GFP = assay: microbe, parasite or virus in culture; format: cell-based, murine CMV; conditions: for EC50: Human betaherpesvirus 5, in Mus musculus, 120 h, MCMV Smith-GFP, 5 d p.i.
[3] = Cell viability of Vero cells; format: cell-based; conditions: African green monkey
Experimental: (§1) Drug induced cytotoxicity in HFF and other cell types was measured as a reduction of cell viability determined by Neutral Red uptake assay (NRA), as described previously. Briefly, compound treated cells were incubated with a final concentration of 40 μg/mL Neutral Red (Sigma Aldrich, St. Louis, MO, USA) for 1 to 4 h, depending on the cell type. The amount of incorporated Neutral Red was released from the cells by incubation with destaining solution (50% ethanol, 49% H2O, 1% acetic acid), and subsequently quantitated in a microplate reader by fluorescence measurement using 560/630 nm for excitation/emission, respectively. For determination of lactate dehydrogenase release into the cell culture supernatant, the CytoTox 96® Non-Radioactive Cytotoxicity Assay (Promega, Madison, WI, USA) was used according to the manufacturer’s protocol. Values were normalized to maximal release of LDH by measuring lysates of solvent-treated control cells. Cell viability was defined as the absence of cytotoxicity.

ZIKV PRVABC59 = assay: ZIKV qPCR replication assay in Vero cells; format: cell-based, Zika virus; conditions: for EC50: ZIKV PRVABC59, Vero
HCMV AD169-GFP = assay: microbe, parasite or virus in culture; format: cell-based, Human cytomegalovirus
MEFs = assay: in vitro; format: cell-based; conditions: mouse, 5 d
Experimental: as §1

in vitro = format: cell-based
Experimental: as §1

VZV Oka-GFP = format: cell-based, varicella zoster virus; conditions: HFF, 1× TCID25^7d, 6 d p.i.
[4] = Neutral Red uptake assay, uninfected MRC-5 cells; format: cell-based; conditions: human
Experimental: as §1

SARS-CoV-2 d6-YFP [5] = assay: microbe, parasite or virus in culture; format: cell-based
CDK1 [6] = target: T1, CDK1 (Homo sapiens, UniProt P06493); assay: Western blot of CDK levels in HCMV-infected HFFs; format: cell-based; conditions: HCMV AD169-infected HFFs (MOI 2), THAL-SNS032 treatment, 1 and 3 d p.i.
T1 construct: endogenous in cells; host or cells: primary human foreskin fibroblasts (HFFs), mock- or HCMV AD169-infected
T1 sequence (P06493 whole entry): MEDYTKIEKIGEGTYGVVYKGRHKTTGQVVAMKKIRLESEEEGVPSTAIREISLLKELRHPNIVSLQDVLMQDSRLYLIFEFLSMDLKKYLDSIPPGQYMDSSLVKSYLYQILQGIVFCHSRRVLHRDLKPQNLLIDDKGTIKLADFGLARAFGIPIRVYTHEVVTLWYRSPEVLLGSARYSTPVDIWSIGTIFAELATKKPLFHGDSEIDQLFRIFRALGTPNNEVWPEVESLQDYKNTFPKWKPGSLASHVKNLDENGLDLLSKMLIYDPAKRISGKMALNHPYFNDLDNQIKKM
Experimental: (§2) Western blot analyses of infected and mock-infected HFFs were performed as previously described. Antibodies specific for CDK9 (sc-484, Santa Cruz Biotechnology, Dallas, TX, USA), mAb-CDK1 (sc-54, Santa Cruz Biotechnology), pAb CDK2 (Sc-163, Santa Cruz Biotechnology), pAb-CDK7 (sc-723, Santa Cruz Biotechnology), and mAb β-actin (A5441, Sigma Aldrich, St. Louis, MO, USA) were used with an appropriate secondary antibody to detect the respective proteins.

CDK7 [7] = target: T2, CDK7 (Homo sapiens, UniProt P50613); assay: Western blot of CDK levels in HCMV-infected HFFs; format: cell-based; conditions: HCMV AD169-infected HFFs (MOI 2), THAL-SNS032 treatment, 1 and 3 d p.i.
T2 construct: endogenous in cells; host or cells: primary human foreskin fibroblasts (HFFs), mock- or HCMV AD169-infected
T2 sequence (P50613 whole entry): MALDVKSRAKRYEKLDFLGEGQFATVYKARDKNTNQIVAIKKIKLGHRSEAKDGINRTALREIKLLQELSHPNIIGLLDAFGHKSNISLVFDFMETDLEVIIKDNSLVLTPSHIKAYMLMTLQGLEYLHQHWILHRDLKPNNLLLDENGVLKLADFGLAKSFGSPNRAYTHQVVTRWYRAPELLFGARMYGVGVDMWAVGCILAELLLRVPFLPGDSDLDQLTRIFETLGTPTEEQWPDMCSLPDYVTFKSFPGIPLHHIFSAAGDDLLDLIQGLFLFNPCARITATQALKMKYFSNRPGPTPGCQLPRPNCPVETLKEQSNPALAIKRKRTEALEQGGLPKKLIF
Experimental: as §2

CDK2 [8] = target: T3, CDK2 (Homo sapiens, UniProt P24941); assay: Western blot of CDK levels in HCMV-infected HFFs; format: cell-based; conditions: HCMV AD169-infected HFFs (MOI 2), THAL-SNS032 treatment, 1 and 3 d p.i.
T3 construct: endogenous in cells; host or cells: primary human foreskin fibroblasts (HFFs), mock- or HCMV AD169-infected
Experimental: as §2

CDK9 [9] = target: T4, CDK9 (Homo sapiens, UniProt P50750); assay: Western blot of CDK levels in HCMV-infected HFFs; format: cell-based; conditions: HCMV AD169-infected HFFs (MOI 2)
T4 construct: endogenous in cells; host or cells: primary human foreskin fibroblasts (HFFs), mock- or HCMV AD169-infected
T4 sequence (P50750 whole entry): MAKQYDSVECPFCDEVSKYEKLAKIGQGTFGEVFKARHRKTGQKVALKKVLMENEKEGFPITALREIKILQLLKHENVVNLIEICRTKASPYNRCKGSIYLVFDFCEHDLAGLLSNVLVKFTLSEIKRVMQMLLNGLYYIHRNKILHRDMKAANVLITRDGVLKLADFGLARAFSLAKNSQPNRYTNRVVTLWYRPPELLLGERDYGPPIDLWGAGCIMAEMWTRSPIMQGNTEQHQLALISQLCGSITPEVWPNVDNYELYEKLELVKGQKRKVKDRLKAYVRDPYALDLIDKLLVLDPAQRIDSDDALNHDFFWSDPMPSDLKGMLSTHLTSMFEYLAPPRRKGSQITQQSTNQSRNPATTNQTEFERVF
Experimental: as §2

HCMV Merlin [10] = assay: HCMV-specific qPCR replication assay in TEV-1 trophoblast cells; format: cell-based, Human cytomegalovirus
TEV-1 trophoblast cells = assay: Transwell migration assay, HCMV AD169-infected TEV-1 trophoblasts; format: cell-based, human; conditions: HCMV AD169-infected TEV-1 (MOI 2), 0.5 µM, 21 h migration
CDK1 [11] = target: T1, CDK1; assay: Western blot of CDK degradation in HFFs; format: cell-based; conditions: uninfected HFFs, up to 100 nM, up to 24 h
Experimental: as §2

CDK7 [12] = target: T2, CDK7; assay: Western blot of CDK degradation in HFFs; format: cell-based; conditions: uninfected HFFs
Experimental: as §2

CDK2 [13] = target: T3, CDK2; assay: Western blot of CDK degradation in HFFs; format: cell-based; conditions: uninfected HFFs
Experimental: as §2

CDK9 [14] = target: T4, CDK9; assay: Western blot of CDK degradation in HFFs; format: cell-based; conditions: uninfected HFFs
Experimental: as §2

HAdV-2 = HAdV-2 plaque formation assay in HFFs; format: cell-based, human adenovirus type 2
[15] = washout after 24 h treatment, initial levels reconstituted after 24 h

SMILES: O=C1Cc2c([nH]c3ccc([N+](=O)[O-])cc23)-c2ccccc2N1 [R25/alsterpaullone, alsterpaullone]
- impairment of SARS-CoV-2 replication (SARS-CoV-2 d6-YFP [1]): effective

SMILES: CC(C)(C)c1cnc(CSc2cnc(NC(=O)C3CCN(CC(=O)NCCOCCOCCOCCNc4cccc5c4C(=O)N(C4CCC(=O)NC4=O)C5=O)CC3)s2)o1 (stereo not drawn) [THAL-SNS032]
- EC50 (HCMV Merlin [2]; Human betaherpesvirus 5, MRC5, 96 h, HCMV Merlin, MRC-5, MOI 0.02, 4 d p.i., read-out: EC50): 370 nM
- EC50 (HCMV Merlin [2]; Human betaherpesvirus 5, MRC5, 96 h, HCMV Merlin, MRC-5, MOI 0.2, 4 d p.i., read-out: EC50): 1770 nM
- EC50 (HCMV Merlin [2]; Human betaherpesvirus 5, MRC5, 168 h, HCMV Merlin, MRC-5, MOI 0.002, 7 d p.i., read-out: EC50): 570 nM
- EC50 (HCMV Merlin [2]; Human betaherpesvirus 5, MRC5, 168 h, HCMV Merlin, MRC-5, MOI 0.02, 7 d p.i., read-out: EC50): 400 nM
- EC50 (HCMV Merlin [2]; Human betaherpesvirus 5, MRC5, 168 h, HCMV Merlin, MRC-5, MOI 0.2, 7 d p.i., read-out: EC50): 3070 nM
- EC50 (HCMV Merlin [2]; Human betaherpesvirus 5, MRC5, 240 h, HCMV Merlin, MRC-5, MOI 0.002, 10 d p.i., read-out: EC50): 940 nM
- EC50 (HCMV Merlin [2]; Human betaherpesvirus 5, MRC5, MRC-5, lower MOIs of 0.02 and 0.002, 4 to 10 days, read-out: EC50 values (range)): 340 to 940 nM
- EC50 Ratio SNS032/ THAL-SNS032 (MCMV Smith-GFP): 1.4
- SI (MCMV Smith-GFP): 4.7
- EC50 (MCMV Smith-GFP; MEF, 1× TCID25^5d, Table 1 summary): 210 ± 90 nM
- EC50 (MCMV Smith-GFP; MEFs, Figure 6 experiment): 220 ± 80 nM
- CC50 at 4 d [3]: 43900 nM
- effect on ZIKV replication (ZIKV PRVABC59; Vero cells, concentrations up to 10 µM): did not affect virus replication
- EC50 (ZIKV PRVABC59; MOI 0.02, 1 d p.i.): inactive
- EC50 (ZIKV PRVABC59; MOI 0.02, 2 d p.i.): inactive
- EC50 (ZIKV PRVABC59; MOI 0.02, 3 d p.i.): inactive
- EC50 (ZIKV PRVABC59; MOI 0.02, 4 d p.i.): inactive
- EC50 Ratio SNS032/ THAL-SNS032 (HCMV AD169-GFP): 3.7
- SI (HCMV AD169-GFP): 5.7
- EC50 (HCMV AD169-GFP; Human betaherpesvirus 5, AD169, 168 h): 25 ± 1 nM
- EC50 (HCMV AD169-GFP; Human betaherpesvirus 5, AD169, HFF-1, 168 h): 30 ± 10 nM
- EC50 (HCMV AD169-GFP; Human betaherpesvirus 5, AD169, read-out: EC50 values (range) for HCMV): 30 to 3070 nM
- CC50 (MEFs): 960 ± 120 nM
- CC50 (in vitro; human): 4030 nM
- CC50 at 48 h (in vitro; human): 64900 ± 16200 nM
- CC50 (in vitro; human, CC50): 125 ± 14 nM
- CC50 (in vitro; mouse, CC50): 1000 ± 220 nM
- CC50 at 5 d (in vitro; mouse, CC50): ~1000 nM
- EC50 (VZV Oka-GFP): inactive
- CC50 [4]: 4650 nM
- EC50 (SARS-CoV-2 d6-YFP [5]): 150 ± 20 nM
- EC50 Ratio SNS032/ THAL-SNS032 (SARS-CoV-2 d6-YFP [5]): 1.6 and 1.7
- SI (SARS-CoV-2 d6-YFP [5]): 592
- EC50 (SARS-CoV-2 d6-YFP [5]; Severe acute respiratory syndrome coronavirus 2, Caco-2): 146 ± 22 nM
- EC50 (SARS-CoV-2 d6-YFP [5]; Severe acute respiratory syndrome coronavirus 2, Caco-2, 30 h): 110 ± 20 nM
- CDK1 protein level (CDK1 [6]): markedly reduced at 1 d p.i. and completely lost at 3 d p.i.
- CDK7 protein level (CDK7 [7]): markedly reduced at 1 d p.i. and completely lost at 3 d p.i.
- CDK2 protein level (CDK2 [8]): markedly reduced at 1 d p.i. and completely lost at 3 d p.i.
- CDK9 protein level (CDK9 [9]; 1 nM, 1 and 3 d p.i.): partial reduction
- CDK9 protein level (CDK9 [9]; 10 nM, 3 h p.i.): sufficient to deplete CDK9 levels
- SI (HCMV Merlin [10]): 53.7 and 54
- EC50 (HCMV Merlin [10]; Human betaherpesvirus 5, 168 h, HCMV Merlin, TEV-1, 7 d p.i.): 75 nM
- trophoblast migration (TEV-1 trophoblast cells): almost completely abolished trophoblast migration
- CDK1 protein level (CDK1 [11]): apparently not affected
- CDK7 protein level (larger variety) (CDK7 [12]; 100 nM, 6 to 24 h): decline in protein levels
- time reduced CDK7 level was maintained after washout (CDK7 [12]; [15]): 6 h
- CDK2 protein level (CDK2 [13]; 100 nM, 6 to 24 h): decline in protein levels
- time reduced CDK2 level was maintained after washout (CDK2 [13]; [15]): 6 h
- CDK9 protein level (CDK9 [14]; 10 nM, beginning with 6 h): markedly reduced
- CDK9 protein level (CDK9 [14]; 100 nM, after 40 min): decreased protein levels
- time reduced CDK9 level was maintained after washout (CDK9 [14]; [15]): 6 h
- EC50 (HAdV-2; HAdV-2, HFF, 10 d p.i.): inactive
- impact on HAdV-2 plaque formation (HAdV-2; HFFs, at concentrations (0.03 µM) that produced anti-HCMV activity): none of the drugs produced a measurable impact
